Here are results for 21 compounds from patent publication US5169838A, “Benzopyranone-β-D-thioxylosides and their use in therapy” (Fournier Industrie et Sante, priority 1989, dated 1992).

A short description of the experiment: venous thrombosis (venous stasis under hypercoagulation with activated factor X, Wessler technique). In kind it is in vivo, male Wistar rats. The following applies: po, administered orally, rat, thrombosis induced 4 hours after treatment, thrombus weighed. The procedure:
The study is performed on unfasted male Wistar rats weighing 250 to 280 g, divided up into groups of 10 animals each. The test products are administered orally as a suspension in PEG 400. A thrombosis is induced 4 hours after this treatment and the thrombus formed is removed and weighed.
On to `Cc1cc(=O)oc2cc(O[C@@H]3SC[C@@H](O)[C@H](O)[C@H]3O)ccc12` [Example 16, 4-methyl-2-oxo-2H-1-benzopyran-7-yl 5-thio-β-D-xylopyranoside], for which 3 mg/kg produced 63% inhibition in vivo. Take `CC(=O)O[C@@H]1[C@@H](OC(C)=O)[C@H](OC(C)=O)CS[C@H]1Oc1ccc2c(C)cc(=O)oc2c1` [Example 16a, 4-methyl-2-oxo-2H-1-benzopyran-7-yl 2,3,4-tri-O-acetyl-5-thio-β-D-xylopyranoside]: testing at 3 mg/kg gave an inhibition in vivo of 63%.

`Cc1c(Cl)c(=O)oc2cc(O[C@@H]3SC[C@@H](O)[C@H](O)[C@H]3O)ccc12` [Example 17, 3-chloro-4-methyl-2-oxo-2H-1-benzopyran-7-yl 5-thio-β-D-xylopyranoside]: the inhibition in vivo – broadly, the share of the control response that was lost under treatment – at 3 mg/kg was 64%.

The compound `CC(=O)O[C@@H]1[C@@H](OC(C)=O)[C@H](OC(C)=O)CS[C@H]1Oc1ccc2c(C)c(Cl)c(=O)oc2c1` [Example 17a, 3-chloro-4-methyl-2-oxo-2H-1-benzopyran-7-yl 2,3,4-tri-O-acetyl-5-thio-β-D-xylopyranoside] displayed an inhibition in vivo at 3 mg/kg of 67%.

`Cc1c(-c2ccccc2)c(=O)oc2cc(O[C@@H]3SC[C@@H](O)[C@H](O)[C@H]3O)ccc12` [Example 18, 4-methyl-2-oxo-3-phenyl-2H-1-benzopyran-7-yl 5-thio-β-D-xylopyranoside]: the inhibition in vivo at 3 mg/kg turned out to be 43%.

For `CC(=O)O[C@@H]1[C@@H](OC(C)=O)[C@H](OC(C)=O)CS[C@H]1Oc1ccc2c(C)c(-c3ccccc3)c(=O)oc2c1` [Example 18a, 4-methyl-2-oxo-3-phenyl-2H-1-benzopyran-7-yl 2,3,4-tri-O-acetyl-5-thio-β-D-xylopyranoside], the inhibition in vivo at 3 mg/kg was 20%. On to `CC(C)c1cc(=O)oc2cc(O[C@@H]3SC[C@@H](O)[C@H](O)[C@H]3O)ccc12` [Example 19, 4-(1-methylethyl)-2-oxo-2H-1-benzopyran-7-yl 5-thio-β-D-xylopyranoside], for which testing at 3 mg/kg gave an inhibition in vivo of 36%. Turning to `Cc1cc(=O)c2ccc(O[C@@H]3SC[C@@H](O)[C@H](O)[C@H]3O)cc2o1` [Example 20, 2-methyl-4-oxo-4H-1-benzopyran-7-yl 5-thio-β-D-xylopyranoside], 3 mg/kg produced 53% inhibition in vivo. Consider `CC(=O)O[C@@H]1[C@@H](OC(C)=O)[C@H](OC(C)=O)CS[C@H]1Oc1ccc2c(=O)cc(C)oc2c1` [Example 20a, 2-methyl-4-oxo-4H-1-benzopyran-7-yl 2,3,4-tri-O-acetyl-5-thio-β-D-xylopyranoside], for which the inhibition in vivo at 3 mg/kg is 20%. As for `CCc1cc(=O)c2ccc(O[C@@H]3SC[C@@H](O)[C@H](O)[C@H]3O)cc2o1` [Example 21, 2-ethyl-4-oxo-4H-1-benzopyran-7-yl 5-thio-β-D-xylopyranoside], at 3 mg/kg the inhibition in vivo was 70%. With `CCc1cc(=O)c2ccc(O[C@@H]3SC[C@@H](OC(C)=O)[C@H](OC(C)=O)[C@H]3OC(C)=O)cc2o1` [Example 21a, 2-ethyl-4-oxo-4H-1-benzopyran-7-yl 2,3,4-tri-O-acetyl-5-thio-β-D-xylopyranoside], testing at 3 mg/kg gave an inhibition in vivo of 42%. `Cc1oc2cc(O[C@@H]3SC[C@@H](O)[C@H](O)[C@H]3O)ccc2c(=O)c1C` [Example 22, 2,3-dimethyl-4-oxo-4H-1-benzopyran-7-yl 5-thio-β-D-xylopyranoside] came in with an inhibition in vivo at 3 mg/kg of 36%. The result for `CC(=O)O[C@@H]1[C@@H](OC(C)=O)[C@H](OC(C)=O)CS[C@H]1Oc1ccc2c(=O)c(C)c(C)oc2c1` [Example 22a, 2,3-dimethyl-4-oxo-4H-1-benzopyran-7-yl 2,3,4-tri-O-acetyl-5-thio-β-D-xylopyranoside] reads 66%. Compound `Cc1cc(=O)c2ccc(S[C@@H]3SC[C@@H](O)[C@H](O)[C@H]3O)cc2o1` [Example 23, 2-methyl-4-oxo-4H-1-benzopyran-7-yl 1,5-dithio-β-D-xylopyranoside] registered an inhibition in vivo at 3 mg/kg of 26%. Take `Cc1cc(=O)c2cc(O[C@@H]3SC[C@@H](O)[C@H](O)[C@H]3O)ccc2o1` [Example 24, 2-methyl-4-oxo-4H-1-benzopyran-6-yl 5-thio-β-D-xylopyranoside]: the inhibition in vivo at 3 mg/kg amounted to 36%.

With `O=c1cc(-c2ccccc2)oc2cc(O[C@@H]3SC[C@@H](O)[C@H](O)[C@H]3O)ccc12` [Example 25, 4-oxo-2-phenyl-4H-1-benzopyran-7-yl 5-thio-β-D-xylopyranoside], the inhibition in vivo at 3 mg/kg was found to be 28%. With `Cc1oc2cc(S[C@@H]3SC[C@@H](O)[C@H](O)[C@H]3O)ccc2c(=O)c1C` [Example 26, 2,3-dimethyl-4-oxo-4H-1-benzopyran-7-yl 1,5-dithio-β-D-xylopyranoside], testing at 3 mg/kg gave an inhibition in vivo of 27%. As to `CCc1cc(=O)c2ccc(S[C@@H]3SC[C@@H](O)[C@H](O)[C@H]3O)cc2o1` [Example 27, 2-ethyl-4-oxo-4H-1-benzopyran-7-yl 1,5-dithio-β-D-xylopyranoside], the inhibition in vivo at 3 mg/kg was determined as 26%.

`CCc1cc(=O)c2ccc(S[C@@H]3SC[C@@H](OC(C)=O)[C@H](OC(C)=O)[C@H]3OC(C)=O)cc2o1` [Example 27a, 2-ethyl-4-oxo-4H-1-benzopyran-7-yl 2,3,4-tri-O-acetyl-1,5-dithio-β-D-xylopyranoside] returned an inhibition in vivo at 3 mg/kg of 23%. In turn, `Cc1oc2cc(O[C@@H]3SC[C@@H](O)[C@H](O)[C@H]3O)ccc2c(=O)c1Br` [Example 28, 3-bromo-2-methyl-4-oxo-4H-1-benzopyran-7-yl 5-thio-β-D-xylopyranoside] had an inhibition in vivo at 3 mg/kg of 49%. For the compound `CC(=O)O[C@@H]1[C@@H](OC(C)=O)[C@H](OC(C)=O)CS[C@H]1Oc1ccc2c(=O)c(Br)c(C)oc2c1` [Example 28a, 3-bromo-2-methyl-4-oxo-4H-1-benzopyran-7-yl 2,3,4-tri-O-acetyl-5-thio-β-D-xylopyranoside], the inhibition in vivo at 3 mg/kg is 25%.
